Experimental data taken from patent publication US9765060B2 (Gilead Sciences, Inc., priority 2014, dated 2017).
Read-outs that look alike come from different tables or passages of the source.

Target: PI3K isoform δ (Homo sapiens (Human), UniProt O00329)
Experiment: TR-FRET assay of enzymatic activity of class I PI3K isoforms
Details: TR-FRET, 2× Km ATP, 2 μM PIP2, incubated for 30 minutes at 25° C.
[1] = read-out: IC50 (nM) for PI3K isoform δ (Table 3)

PI3K isoform δ, sequence (O00329 whole entry, canonical isoform): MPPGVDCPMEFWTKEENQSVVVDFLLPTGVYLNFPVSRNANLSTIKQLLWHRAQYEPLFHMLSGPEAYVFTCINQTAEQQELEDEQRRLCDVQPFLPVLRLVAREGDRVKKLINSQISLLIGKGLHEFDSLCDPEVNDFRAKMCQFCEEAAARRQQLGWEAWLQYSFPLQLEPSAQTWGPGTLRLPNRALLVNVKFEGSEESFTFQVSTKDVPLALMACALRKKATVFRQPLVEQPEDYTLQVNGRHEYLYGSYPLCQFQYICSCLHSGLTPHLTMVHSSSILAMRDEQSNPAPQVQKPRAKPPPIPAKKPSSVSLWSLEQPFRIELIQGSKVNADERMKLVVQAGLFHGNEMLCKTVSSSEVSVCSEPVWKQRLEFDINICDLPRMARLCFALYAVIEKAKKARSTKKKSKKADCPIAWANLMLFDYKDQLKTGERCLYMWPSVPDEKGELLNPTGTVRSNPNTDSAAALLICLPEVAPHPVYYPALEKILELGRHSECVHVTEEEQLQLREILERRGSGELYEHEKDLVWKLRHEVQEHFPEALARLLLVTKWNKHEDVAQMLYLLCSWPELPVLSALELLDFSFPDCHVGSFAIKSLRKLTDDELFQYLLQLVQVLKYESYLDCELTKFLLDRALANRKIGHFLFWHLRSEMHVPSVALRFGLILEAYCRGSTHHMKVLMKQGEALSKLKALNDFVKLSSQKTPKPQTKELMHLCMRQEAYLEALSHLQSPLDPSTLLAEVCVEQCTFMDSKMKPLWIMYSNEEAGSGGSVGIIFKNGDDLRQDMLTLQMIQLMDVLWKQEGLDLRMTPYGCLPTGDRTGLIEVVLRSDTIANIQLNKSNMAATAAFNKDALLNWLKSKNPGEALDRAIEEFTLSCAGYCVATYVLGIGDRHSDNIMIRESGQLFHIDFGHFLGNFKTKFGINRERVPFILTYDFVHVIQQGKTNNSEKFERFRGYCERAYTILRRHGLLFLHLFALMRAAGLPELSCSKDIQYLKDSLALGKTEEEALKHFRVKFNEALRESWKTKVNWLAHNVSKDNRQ
PI3K isoform δ, sequence (P27986 whole entry partner, canonical isoform): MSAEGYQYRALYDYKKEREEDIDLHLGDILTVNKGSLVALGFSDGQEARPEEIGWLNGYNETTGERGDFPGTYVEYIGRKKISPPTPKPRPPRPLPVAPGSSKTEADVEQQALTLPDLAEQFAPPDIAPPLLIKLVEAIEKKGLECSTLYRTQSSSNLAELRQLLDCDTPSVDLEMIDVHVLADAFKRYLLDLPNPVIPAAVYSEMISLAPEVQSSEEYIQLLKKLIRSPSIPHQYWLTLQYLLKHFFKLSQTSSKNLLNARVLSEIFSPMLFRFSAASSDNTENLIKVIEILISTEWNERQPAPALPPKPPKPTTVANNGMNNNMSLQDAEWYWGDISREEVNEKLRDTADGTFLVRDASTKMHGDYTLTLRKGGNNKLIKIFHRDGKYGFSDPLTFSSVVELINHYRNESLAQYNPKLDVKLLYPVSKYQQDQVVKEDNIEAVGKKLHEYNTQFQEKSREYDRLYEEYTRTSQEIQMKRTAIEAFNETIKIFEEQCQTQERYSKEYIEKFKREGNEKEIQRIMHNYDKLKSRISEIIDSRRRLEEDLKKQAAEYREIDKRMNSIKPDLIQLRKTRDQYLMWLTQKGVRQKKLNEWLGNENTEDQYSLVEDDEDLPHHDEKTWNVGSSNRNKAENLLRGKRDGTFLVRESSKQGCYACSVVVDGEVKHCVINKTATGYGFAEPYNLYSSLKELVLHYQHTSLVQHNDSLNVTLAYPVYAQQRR
Text: TR-FRET monitored the formation of 3,4,5-inositol triphosphate molecule that competed with fluorescently labeled PIP3 for binding to the GRP-1 pleckstrin homology domain protein. […] Class I PI3K isoforms were expressed and purified as heterodimeric recombinant proteins. All assay reagents and buffers for the TR-FRET assay were purchased from Millipore.

IC50 [1] | Molecule | IC50 (read-out: IC50 (nM) for PI3K isoform δ (Table 2))
64 nM | N#Cc1c(N)nc(N)nc1N1C[C@H](NC(=O)CN)C[C@H]1c1nc2cccc(Cl)c2c(=O)n1-c1ccccc1 [Compound 115, 2-amino-N-((3R,5S)-5-(5-chloro-4-oxo-3-phenyl-3,4-dihydroquinazolin-2-yl)-1-(2,6-diamino-5-cyanopyrimidin-4-yl)pyrrolidin-3-yl)acetamide] | 
7 nM | N#Cc1c(N)nc(N)nc1N1C[C@H](NC(=O)CN)C[C@H]1c1nc2cccc(Cl)c2c(=O)n1-c1cc(F)cc(F)c1 [Compound 116, 2-amino-N-((3R,5S)-5-(5-chloro-3-(3,5-difluorophenyl)-4-oxo-3,4-dihydroquinazolin-2-yl)-1-(2,6-diamino-5-cyanopyrimidin-4-yl)pyrrolidin-3-yl)acetamide] | 
 | C[C@H](Nc1ncnc(N)c1C#N)c1nc2cccc(Cl)c2c(=O)n1-c1ccccc1 [Compound Y, (S)-4-amino-6-((1-(5-chloro-4-oxo-3-phenyl-3,4-dihydroquinazolin-2-yl)ethyl)amino)pyrimidine-5-carbonitrile, reference compound] | 0.4 nM

Molecule | IC50 [1] | IC50 (read-out: IC50 (nM) for PI3K isoform δ (Table 2))
N-((3R,5S)-5-(5-chloro-3-(3-(difluorophenyl)-5-fluorophenyl)-4-oxo-3,4-dihydroquinazolin-2-yl)-1-(2,6-diamino-5-cyanopyrimidin-4-yl)pyrrolidin-3-yl)-2,2-difluoroacetamide [Compound 110] | 2 nM | 
